According to patent publication US7928231B2, “Thienopyrazoles” (priority 2003, dated 2011):

Columns and labels:
[1] = biological target: T1, ITK (Homo sapiens, UniProt Q08881); assay: FlashPlate ITK protocol for ITK inhibition determination (ITK autophosphorylation, [γ-33P]ATP); type: biochemical; conditions: MBP-tagged ITK, read-out: IC50 (enzyme inhibition)-
T1 construct: made in house
T1 sequence (Q08881 1-620): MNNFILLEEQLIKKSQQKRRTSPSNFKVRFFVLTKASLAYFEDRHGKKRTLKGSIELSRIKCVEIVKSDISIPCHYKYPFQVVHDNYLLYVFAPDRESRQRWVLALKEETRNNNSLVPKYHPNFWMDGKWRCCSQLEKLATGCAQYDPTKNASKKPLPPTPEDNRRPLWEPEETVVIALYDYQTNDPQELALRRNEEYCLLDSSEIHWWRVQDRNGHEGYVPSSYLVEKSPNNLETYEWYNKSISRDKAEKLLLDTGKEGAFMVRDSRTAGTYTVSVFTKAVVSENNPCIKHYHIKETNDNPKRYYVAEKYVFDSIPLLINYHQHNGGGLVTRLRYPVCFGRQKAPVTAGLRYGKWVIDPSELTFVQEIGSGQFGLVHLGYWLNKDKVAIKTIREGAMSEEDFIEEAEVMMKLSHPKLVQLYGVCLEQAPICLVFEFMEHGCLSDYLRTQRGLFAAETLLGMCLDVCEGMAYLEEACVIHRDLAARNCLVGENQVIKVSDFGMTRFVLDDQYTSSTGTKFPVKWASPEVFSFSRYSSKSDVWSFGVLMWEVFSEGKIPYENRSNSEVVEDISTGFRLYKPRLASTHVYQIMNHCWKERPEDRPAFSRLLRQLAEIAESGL
Method: ITK kinase is produced with an N-terminal Maltose Binding Protein tag (MW=˜114 kDa) using a Baculovirus expression system. The transfer of radioactive [γ-^33P] phosphate from [γ-^33P]ATP to ITK during the autophosphorylation of ITK is measured by scintillation counting. Streptavidin-coated FlashPlate Plus™ 384 well microplates (PerkinElmer Life Sciences) are designed for in-plate radiometric assays. The interior of each well is permanently coated with a thin layer of scintillant and a covalently bound layer of Streptavidin. ITK is incubated with [γ-^33P]ATP, biotinylated anti-MBP antibody (Cell Signaling Technology™) and test compounds in a 384-well Streptavidin-coated FlashPlate. The biotinylated anti-MBP binds tightly to the MBP-tagged ITK and cross-links it to Streptavidin on the plate surface. Unreacted ^33P-ATP is washed away and ^33P-phosphorylated ITK is measured when the [γ-^33P] incorporated into ITK stimulates the scintillant on the well to emit light. Radioactivity is assessed in a Packard
TopCount scintillation counter. Reagents are pipetted and dispensed using Beckman Biomek robotic equipment. Test compounds (2 μl per well) are pre-diluted from 1 mM 100% dimethyl sulfoxide solutions into water containing 30% dimethyl sulfoxide to produce dose response curves (10 point curves from (final) 30 μM to ˜1 nM); all tests are performed in duplicate. Background binding is assessed by substituting the enzyme inhibitor EDTA (25 mM final concentration) for test compound and maximal binding is assessed by inclusion of assay buffer instead of compound. Test compounds are added to the wells first (2 μl) followed by 10 μl enzyme solution in assay buffer. After 30 minutes pre-incubation, all other reagents are added in a 10 μl volume. The final reagent concentrations/well are as follows: 20 nM enzyme, 0.25 μCi [γ-^33P]ATP, assay buffer: 20 mM HEPES (pH 7.5), 0.15 M NaCl, 3 mM MgCl2, 3 mM MnCl2, 0.01% Triton X-100, 1 mM DTT, 5% glycerol and 0.01% γ-globulin. The plate is incubated at room temperature (RT) for 60 minutes for the kinase reaction. The reaction is stopped with 20 μl of 50 mM EDTA and the biotinylated anti-MBP is allowed to bind to the ITK and the Streptavidin for a further 60 minutes at RT. The unbound reagents are washed away with 2×100 μl phosphate-buffered saline (PBS). Radioactivity is measured for 45 sec/well.

## COc1ccc2[nH]c(-c3n[nH]c4ccsc34)cc2n1 [Example 60, 5-Methoxy-2-(1H-thieno[3,2-c]pyrazol-3-yl)-1H-pyrrolo[3,2-b]pyridine]
[1]
  IC50: 224 nM
other
  melting point: 234 to 236 °C
